Results taken from patent US12396961B2, “Compounds and compositions for intracellular delivery of agents” (ModernaTX, Inc., priority 2015, dated 2025).

Test: Particle size and polydispersity index (Zetasizer Nano ZS)
Type: physicochemical
Description: Nanoparticle compositions may be characterized by a variety of methods. For example, microscopy (e.g., transmission electron microscopy or scanning electron microscopy) may be used to examine the morphology and size distribution of a nanoparticle composition. Dynamic light scattering or potentiometry (e.g., potentiometric titrations) may be used to measure zeta potentials. Dynamic light scattering may also be utilized to determine particle sizes. Instruments such as the Zetasizer Nano ZS (Malvern Instruments Ltd, Malvern, Worcestershire, UK) may also be used to measure multiple characteristics of a nanoparticle composition, such as particle size, polydispersity index, and zeta potential.
A Zetasizer Nano ZS (Malvern Instruments Ltd, Malvern, Worcestershire, UK) can be used to determine the particle size, the polydispersity index (PDI) and the zeta potential of the nanoparticle compositions in 1×PBS in determining particle size and 15 mM PBS in determining zeta potential.

[1] = Table 1, DOPE 40:20:38.5:1.5, Luc mRNA
[2] = Table 1, marked *: lipid:DSPC:Chol:PEG-DMG 50:10:38.5:1.5

Compound | PDI [1] | PDI (Table 20-1) | also measured
CCCCCCCCCCCCN(CCCCCCCCCCCC)CCN(CCCCCCCCCCCC)CCN1CCN(C(=O)CN(CCCCCCCCCCCC)CCCCCCCCCCCC)CC1 [Compound 3, 2-(Didodecylamino)-1-(4-(2-((2-(didodecylamino)ethyl)(dodecyl)amino)ethyl)piperazin-1-yl)ethan-1-one] | 0.044 |  | 
CCCCCCCCCCCCCCN(CCCCCCCCCCCCCC)CCN(CCCCCCCCCCCCCC)CCN1CCN(CCN(CCCCCCCCCCCC)CCCCCC(=O)OCCCCC)CC1 [Compound 13, Pentyl 6-((2-(4-(2-((2-(ditetradecylamino)ethyl)(tetradecyl)amino)ethyl)piperazin-1-yl)ethyl)(dodecyl)amino)hexanoate] | 0.080 |  | 
CCCCCCCCCCCCN(CCCCCCCCCCCC)CCN(CCCCCCCCCCCC)CCN1CCN(CCN(CCCCCCCCCCCC)CCCCCCCCCCCC(=O)OC)CC1 [Compound 15, Methyl 12-((2-(4-(2-((2-(didodecylamino)ethyl)(dodecyl)amino)ethyl)piperazin-1-yl)ethyl)(dodecyl)amino)dodecanoate] |  |  | PDI (formulated with hEPO mRNA): 0.120
CCCCCCCCCCCCN(CCCCCCCCCCCC)CCN1CCN(CCN(CCCCCC)CCN(CCCCCC)CCCCCC)CC1 [Compound 17, N^1-(2-(4-(2-(Didodecylamino)ethyl)piperazin-1-yl)ethyl)-N^1,N^2,N^2-trihexylethane-1,2-diamine] | 0.180 |  | 
CCCCCCCCCN(CCCCCCCCC)CCN(CCCCCCCCC)CCN1CCN(CCN(CCCCCCCCC)CCCCCCCCC)CC1 [Compound 18, N^1-(2-(4-(2-(Dinonylamino)ethyl)piperazin-1-yl)ethyl)-N^1,N^2,N^2-trinonylethane-1,2-diamine] | 0.120 |  | 
CCCCCCCCCCCCN(CCCCCCCCCCCC)CCN1CCN(CCN(CCCCCCCCC)CCN(CCCCCCCCC)CCCCCCCCC)CC1 [Compound 19, N^1-(2-(4-(2-(Didodecylamino)ethyl)piperazin-1-yl)ethyl)-N^1,N^2,N^2-trinonylethane-1,2-diamine] | 0.100 |  | 
CCCCCCCCCCCCN(CCCCCCCCCCCC)CCN(CCCCCCCCCCCC)CC(=O)O [Compound 20-1, N-(2-(Didodecylamino)ethyl)-N-dodecylglycine] |  |  | PDI (Table 20-1, row marked *: formulated with DOPE): 0.078
CCCCCCCCCCCCN(CCO)CCN(CCCCCCCCCCCC)CCCCCC(=O)OCCCCC [Compound 20-2, Pentyl 6-(dodecyl(2-(dodecyl(2-hydroxyethyl)amino)ethyl)amino)hexanoate] |  | 0.130 | 
CCCCCCCCCCCCN(CCCCCCCCCCCC)CCN(CCO)CCCCCC(=O)OCCCCC [Compound 20-3, Pentyl 6-((2-(didodecylamino)ethyl)(2-hydroxyethyl)amino)hexanoate] |  | 0.110 | 
CCCCCCCCCCCCN(CCO)CCN(CCCCCC(=O)OCCCCC)CCCCCC(=O)OCCCCC [Compound 20-4, Dipentyl 6,6′-((2-(dodecyl(2-hydroxyethyl)amino)ethyl)azanediyl)dihexanoate] |  | 0.160 | 
CCCCCCCOC(=O)CCCCCN(CCO)CCN(CCCCCC(=O)OCCCCCCC)CCCCCC(=O)OCCCCCCC [Compound 20-5, Diheptyl 6,6′-((2-((6-(heptyloxy)-6-oxohexyl)(2 hydroxyethyl)amino)ethyl)azanediyl)dihexanoate] |  | 0.210 | 
CCCCCCCCCN(CCCCCCCCC)CCN(CCO)CCCCCC(=O)OCCCCC [Compound 20-6, Pentyl 6-((2-(dinonylamino)ethyl)(2-hydroxyethyl)amino)hexanoate] |  | 0.220 | 
CCCCCCCCCCCCN(CCO)CCN(CCCCCCCCCCCC)CCCCCC(=O)OCCCCCCC [Compound 20-7, Heptyl 6-(dodecyl(2-(dodecyl(2-hydroxyethyl)amino)ethyl)amino)hexanoate] |  | 0.170 | 
CCCCCCCCCCCCN(CCCCCCCCCCCC)CCN(CCO)CCCCCCCC(=O)OC(CCCCCCCC)CCCCCCCC [Compound 20-9, Heptadecan-9-yl 8-((2-(didodecylamino)ethyl)(2-hydroxyethyl)amino)octanoate] |  | 0.130 | 
CCCCCCCCCCCCN(CCO)CCN(CCCCCCCC(=O)OCCCCCCCCC)CCCCCCCC(=O)OCCCCCCCCC [Compound 20-10, Dinonyl 8,8′-((2-(dodecyl(2-hydroxyethyl)amino)ethyl)azanediyl)dioctanoate] |  | 0.130 | 
CCCCC/C=C\C/C=C\CCCCCCCCN(CCCCCCCC/C=C\C/C=C\CCCCC)CCN(CCO)CCCCCCCCCCCC [Compound 20-13, 2-((2-(Di((9Z,12Z)-octadeca-9,12-dien-1-yl)amino)ethyl)(dodecyl)amino)ethan-1-ol] |  | 0.057 | 
CCCCCCCCCCCCN(CCCCCCCCCCCC)CCN(CCO)CCCCCCCCC [Compound 20-17, 2-((2-(didodecylamino)ethyl)(nonyl)amino)ethan-1-ol] |  | 0.092 | 
CCCCCCCCCCCCN(CCO)CCN(CCCCCCCCC)CCCCCCCCC [Compound 20-18, 2-((2-(Dinonylamino)ethyl)(dodecyl)amino)ethan-1-ol] |  | 0.150 | 
CCCCC/C=C\CCCCCN(CCO)CCN(CCCCCCCCCCCC)CCCCCCCCCCCC [Compound 20-23, (Z)-2-((2-(Didodecylamino)ethyl)(dodec-6-en-1-yl)amino)ethan-1-ol] |  | 0.080 | 
CCCCCCCCCCCCCCN(CCO)CCN(CCCCCCCCCCCC)CCCCCCCCCCCC [Compound 20-24, 2-((2-(Didodecylamino)ethyl)(tetradecyl)amino)ethan-1-ol] |  | 0.038 | 
CCCCCCCCCCCCN(CCCCCCCCCCCC)CCN(CCCCCCCCCCCC)CCN1CCN(CCN(CCCCCCCC)CCCCCCCC)CC1 [Compound 22, N^1-(2-(4-(2-(Dioctylamino)ethyl)piperazin-1-yl)ethyl)-N^1,N^2,N^2-tridodecylethane-1,2-diamine] |  |  | PDI (formulated with hEPO mRNA): 0.130
CCCCCCCC/C=C\CCCCCCCCN(CCCCCCCC/C=C\CCCCCCCC)CCN1CCN(CCN(CCCCCCCCCCCC)CCN(CCCCCCCCCCCC)CCCCCCCCCCCC)CC1 [Compound 28, N^1-(2-(4-(2-(Di((Z)-octadec-9-en-1-yl)amino)ethyl)piperazin-1-yl)ethyl)-N^1,N^2,N^2-tridodecylethane-1,2-diamine] | 0.099 |  | 
CCCCC/C=C\C/C=C\CCCCCCCCN(CCCCCCCC/C=C\C/C=C\CCCCC)CCN1CCN(CCN(CCCCCCCCCCCC)CCN(CCCCCCCCCCCC)CCCCCCCCCCCC)CC1 [Compound 29, N^1-(2-(4-(2-(Di((9Z,12Z)-octadeca-9,12-dien-1-yl)amino)ethyl)piperazin-1-yl)ethyl)-N^1,N^2,N^2-tridodecylethane-1,2-diamine] | 0.060 |  | 
CCCCCCCCCCCCCCN(CCCCCCCCCCCCCC)CCN(CCCCCCCCCCCCCC)CCN1CCN(CCN(CCCCCCCCC)CCCCCCCCC)CC1 [Compound 30, N^1-(2-(4-(2-(Dinonylamino)ethyl)piperazin-1-yl)ethyl)-N^1,N^2,N^2-tritetradecylethane-1,2-diamine] | 0.110 |  | Size (nm) (Table 1, lipid:DOPE:Chol:PEG-DMG 40:20:38.5:1.5, Luc mRNA, MC3 standard formulation): 95.0 nm
CCCCCCCCCCCCCCN(CCCCCCCCCCCCCC)CCN(CCCCCCCCCCCCCC)CCN1CCN(CCN(CCCCCCCCCCCC)CCCCCCCCCCCC)CC1 [Compound 31, N^1-(2-(4-(2-(Didodecylamino)ethyl)piperazin-1-yl)ethyl)-N^1,N^2,N^2 tritetradecylethane-1,2-diamine] | 0.130 |  | 
CCCCCCCCCCCCCCN(CCCCCCCCCCCCCC)CCN(CCCCCCCCCCCCCC)CCN1CCN(CCN(CCCCCCCCCCCCCC)CCCCCCCCCCCCCC)CC1 [Compound 32, N^1-(2-(4-(2-(Ditetradecylamino)ethyl)piperazin-1-yl)ethyl)-N^1,N^2,N^2 tritetradecylethane-1,2-diamine] | 0.160 |  | 
CCCCC/C=C\C/C=C\CCCCCCCCN(CCCCCCCC/C=C\C/C=C\CCCCC)CCN(CCCCCCCC/C=C\C/C=C\CCCCC)CCN1CCN(CCN(CCCCCCCCCCCC)CCCCCCCCCCCC)CC1 [Compound 34, N^1-(2-(4-(2-(Didodecylamino)ethyl)piperazin-1-yl)ethyl)-N^1,N^2,N^2-tri((9Z,12Z)-octadeca-9,12-dien-1-yl)ethane-1,2-diamine] |  |  | PDI [2]: 0.077
CCCCCCCCCN(CCCCCCCCC)CCN(CCCCCCCCC)CCN1CCNCC1 [Compound 36, N^1,N^1,N^2-Trinonyl-N^2-(2-(piperazin-1-yl)ethyl)ethane-1,2-diamine] |  |  | PDI [2]: 0.110
CCCCCCCC/C=C\CCCCCCCCN(CCCCCCCC/C=C\CCCCCCCC)CCN(CCCCCCCC/C=C\CCCCCCCC)CCN1CCNCC1 [Compound 40, N^1,N^1,N^2-Tri((Z)-octadec-9-en-1-yl)-N^2-(2-(piperazin-1-yl)ethyl)ethane-1,2-diamine] |  |  | PDI [2]: 0.210
CCCCC/C=C\C/C=C\CCCCCCCCN(CCCCCCCC/C=C\C/C=C\CCCCC)CCN(CCCCCCCC/C=C\C/C=C\CCCCC)CCN1CCNCC1 [Compound 41, N^1,N^1,N^2-Tri((9Z,12Z)-octadeca-9,12-dien-1-yl)-N^2-(2-(piperazin-1-yl)ethyl)ethane-1,2-diamine] |  |  | Size (nm) [2]: 69.0 nm
